In patent publication US20260355323A1, “CEREBLON-RECRUITING BCL-XL/BCL-2 DUAL DEGRADERS” (University of Florida Research Foundation, Incorporated, priority 2022, published 2026):
pEC50: −log10 of the molar value.

Experiments:
WI-38 NC = test: Senolytic activity, cell viability (PrestoBlue HS), WI-38 NC; assay type: cell-based; conditions: Homo sapiens, 72 h
Protocol: (§1) WI-38 and HUVEC cells were incubated with increasing concentrations of degraders for 72 h. Cell viability was measured using PrestoBlue HS cell viability reagent.

HUVEC NC = test: Senolytic activity, cell viability (PrestoBlue HS), HUVEC NC; assay type: cell-based
Protocol: as §1

Bcl-xL [1] = target: T1, Bcl-xL (Homo sapiens, UniProt Q07817); test: Bcl-xL protein degradation in Jurkat cells (immunoblot); assay type: cell-based; conditions: 16 h
T1 construct: immunoblot after 16 h degrader treatment
T1 sequence (Q07817 whole entry): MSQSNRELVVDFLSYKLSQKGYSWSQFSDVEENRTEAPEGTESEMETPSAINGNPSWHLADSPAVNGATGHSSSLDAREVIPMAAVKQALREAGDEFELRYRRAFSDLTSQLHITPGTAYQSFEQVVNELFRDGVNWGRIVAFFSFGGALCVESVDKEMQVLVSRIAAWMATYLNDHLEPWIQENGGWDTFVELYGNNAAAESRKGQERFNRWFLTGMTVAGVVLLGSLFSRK
T1 sequence (Q96SW2 whole entry partner): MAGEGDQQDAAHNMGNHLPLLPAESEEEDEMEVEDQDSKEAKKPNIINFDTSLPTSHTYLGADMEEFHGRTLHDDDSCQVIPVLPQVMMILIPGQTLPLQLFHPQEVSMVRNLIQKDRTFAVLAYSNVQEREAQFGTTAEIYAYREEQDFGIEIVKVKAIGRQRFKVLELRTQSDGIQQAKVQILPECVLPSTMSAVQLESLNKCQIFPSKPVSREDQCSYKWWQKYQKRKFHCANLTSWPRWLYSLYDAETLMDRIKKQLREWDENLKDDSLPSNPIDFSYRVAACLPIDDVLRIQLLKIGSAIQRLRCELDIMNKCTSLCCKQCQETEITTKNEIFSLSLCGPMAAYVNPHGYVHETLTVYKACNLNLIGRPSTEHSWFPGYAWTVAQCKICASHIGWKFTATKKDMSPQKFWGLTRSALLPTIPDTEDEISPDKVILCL
Protocol: (§2) Jurkat and Hela cells were incubated with increasing concentrations of test compounds for 16 h. The cells were harvested and lysed in RIPA lysis buffer supplemented with protease and phosphatase inhibitor cocktails. An equal amount of protein (20 μg/lane) was resolved on a pre-cast 4-20% SDS-PAGE gel. Proteins were subsequently transferred to NOVEX PVDF membranes by electrophoresis. The membranes were blocked in blocking buffer (5% non-fat dry milk in TBS-T), and incubated with primary antibodies (at optimized concentrations) overnight at 4° C. After three washings in TBS-T, the membranes were incubated with an appropriate FIRP-conjugated secondary antibody for 1 h at room temperature. After extensive washing for three times, the proteins of interest were detected with ECL western blotting detection reagents and recorded with autoradiography (Pierce Biotech, Rockford, IL, USA). The primary antibodies for Bcl-xL (Cat #2762), Bcl-2 (Cat #2872), Bcl-w (Cat #2724) and β-actin (Cat #4970) were purchased from Cell Signaling Technology. The relative band intensity was measured using ImageJ software and normalized to β-actin.

[2] = test system: RS4;11 acute lymphoblastic leukemia cells; test: Cell viability, tetrazolium-based MTS assay, RS4;11; conditions: Homo sapiens, RS4;11, 48 h, read-out: Anti-Cancer Activity EC50 (48 hr), RS4
Protocol: (§3) Acute lymphoblastic leukemia cells (MOLT-4 and RS4;11) were incubated with increasing concentrations of Bcl-xL/Bcl-2 degraders for 48 h. Cell viability was measured by tetrazolium-based MTS assay.

[3] = test system: WI-38 irradiation-induced senescent cells (IR-SC); test: Senolytic activity, cell viability (PrestoBlue HS), WI-38 IR-SC; assay type: cell-based; conditions: Homo sapiens, 72 h
Summary of the method: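 WI-38 and HUVEC were made senescent by 20 Gy x-ray irradiation and used 10–15 days later. Senescent cells were exposed to increasing degrader concentrations for 72 h. Viability was read with PrestoBlue HS.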

Bcl-xL [4] = target: T1, Bcl-xL; test: Bcl-xL protein degradation in Hela cells (immunoblot); assay type: cell-based; conditions: 16 h
Protocol: as §2

[5] = test system: HUVEC irradiation-induced senescent cells (IR-SC); test: Senolytic activity, cell viability (PrestoBlue HS), HUVEC IR-SC; assay type: cell-based; conditions: Homo sapiens, 72 h
Protocol: To induce senescence in WI-38 and HUVEC, cells were subjected to x-ray irradiation at 20 Gray using X-RAD 320 biological irradiator. Following between 10 to 15 days after irradiation, senescence was induced in cells, and irradiation-induced senescent cells (IR-SC) were then used for cell viability and Western blotting tests.
as §1

[6] = test system: MOLT-4 acute lymphoblastic leukemia cells; test: Cell viability, tetrazolium-based MTS assay, MOLT-4; conditions: Homo sapiens, MOLT-4, 48 h; read-out: Anti-Cancer Activity EC50 (48 hr), MOLT-4
Protocol: as §3

platelets = conditions: animals and/or humans; cited from earlier work
[7] = test system: venetoclax resistant CLL cells; conditions: cited from earlier work

| SMILES | pEC50 (WI-38 NC) | Senolytic Activity EC50 (72 hr), HUVEC NC (HUVEC NC) | degradation of Bcl-xL (Bcl-xL [1]) | pEC50 [2] | pEC50 [3] | degradation of Bcl-xL (Bcl-xL [4]) | pEC50 [5] | pEC50 [6] | dose-limiting thrombocytopenia (platelets) | efficacy in killing venetoclax resistant CLL cells [7] |
| --- | --- | --- | --- | --- | --- | --- | --- | --- | --- | --- |
| C[C@@]1(CN2CCC(CN3CCCN(c4ccc5c(c4)CN(C4CCC(=O)NC4=O)C5=O)CC3)CC2)CCC(c2ccc(Cl)cc2)=C(CN2CCN(c3ccc(C(=O)NS(=O)(=O)c4ccc(N[C@H](CCN5CCCOCC5)CSc5ccccc5)c(S(=O)(=O)C(F)(F)F)c4)cc3)CC2)C1 (stereo partly drawn) [Compound 44, N-((4-(((R)-4-(1,4-oxazepan-4-yl)-1-(phenylthio)butan-2-yl)amino)-3-((trifluoromethyl)sulfonyl)phenyl)sulfonyl)-4-(4-(((4R)-4′-chloro-4-((4-((4-(2-(2,6-dioxopiperidin-3-yl)-1-oxoisoindolin-5-yl)-1,4-diazepan-1-yl)methyl)piperidin-1-yl)methyl)-4-methyl-3,4,5,6-tetrahydro-[1,1′-biphenyl]-2-yl)methyl)piperazin-1-yl)benzamide] | < 5.00 | ++ (100-10 μM) | degrade Bcl-xL in a dose-dependent manner | > 9.00 | 8.00 to 9.00 | degrade Bcl-xL in a dose-dependent manner | > 9.00 | > 9.00 |  |  |
| CC1(C)CCC(c2ccc(Cl)cc2)=C(CN2CCN(c3ccc(C(=O)NS(=O)(=O)c4ccc(N[C@H](CCN5CCOCC5)CSc5ccccc5)c(S(=O)(=O)C(F)(F)F)c4)cc3)CC2)C1 [ABT-263, navitoclax] |  |  |  |  |  |  |  |  | dose-limiting thrombocytopenia has been observed | high efficacy |
